Source: paper PMC10787067, “EBF2 Links KMT2D‐Mediated H3K4me1 to Suppress Pancreatic Cancer Progression via Upregulating KLLN” (Advanced Science, 2023)

Legend:
H3K4me1 [1] = test: Western blot and IHC of metastatic foci from treated mice, H3K4me1; format: in vivo, Human (xenograft in BALB/c nude mice); settings: control vs GSK-LSD1-treated lung metastasis tissues, Figure 5L,M
KLLN [2] = test: Western blot and IHC of metastatic foci from treated mice, KLLN; format: in vivo, Human (xenograft in BALB/c nude mice); settings: control vs GSK-LSD1-treated lung metastasis tissues, Figure 5L,M
PANC‐1 cells [3] = test: Colony-formation and CCK-8 proliferation, PANC-1; format: cell-based, Human; settings: vs Vehicle, p < 0.01, Figure S4E,F
Experimental: (§1) Cell proliferation was determined by Cell Counting Kit‐8 (CCK‐8, Yeasen) and EdU Cell Proliferation Assay kit (Ribobio, Guangzhou, China). Colony formation was observed by staining with 0.1% crystal violet (Sangon Biotechnologies Inc., Shanghai, China). Cell migration and invasion were assessed using […] pore Transwell chambers with (for invasion assay) or without Matrigel (for migration assay). For migration assay, 5 × 10^4 SW1990 or 3 × 10^4 PANC‐1 cells were seeded into the upper chamber of the Transwell apparatus (Corning, USA) in serum‐free medium, and the medium supplemented with 10% FBS was added to the bottom chamber. For invasion assay, 10 × 10^4 SW1990 or 6 × 10^4 PANC‐1 cells were seeded into the upper Corning BioCoat Matrigel invasion chamber. After 24 h, the cells on the upper surface that had not passed through the polycarbonate filter were removed using a moistened cotton swab; the cells having migrated to the lower membrane surface were fixed in 100% methanol for 10 min, stained with 0.4% crystal violet for 15 min, and counted under a microscope (Nikon, Japan) at ×100 magnification. The cells were manually counted using Image J software. Three independent experiments were performed.

KLLN [4] = test: Western blot of KLLN in PANC-1 cells; format: cell-based, Human; settings: 0, 1, 10 or 100 μM GSK-LSD1, Figure S4D
Experimental: (§2) SW1990 and PANC‐1 cells were isolated using lysate buffer containing protease inhibitors. Samples containing equal amounts of protein were separated by SDS‐PAGE. After electrophoresis, the proteins were transferred to a PVDF membrane (Millipore, Billerica, MA, USA) and blocked with 5% skim milk for 2 h at room temperature. An overnight incubation of membranes was made at 4 °C with primary antibodies against KMT2D (1:1000; Affinity, China), EBF2 (1:1000; Affinity), and KLLN (1:1000; Abcam, USA). After washing with 1× TBST for three times, a 2 h incubation of membranes was implemented with horseradish peroxidase (HRP)‐gemeled Affinipure Goat Anti‐Rabbit IgG (H + L) (1:10000; ProteinTech, China) or Peroxidase‐gemeled Affinipure Goat Anti‐Mouse IgG (H+L) (1:10000; ProteinTech) at room temperature. Proteins were visualized by chemiluminescence using an ECL kit (Thermo Fisher).

KDM1A/LSD1 = settings: cited from earlier work
Description: Next, we sought to elucidate the roles of KMT2D‐ and EBF2‐regulated H3K4me1 through profiling the gene transcription in PDAC cells with H3K4me1 activation by GSK‐LSD1 or EBF2 overexpression (EBF2‐OE). […] These differentially expressed genes (DEGs) were overlapped genes between EBF2‐OE and GSK‐LSD1‐treated SW1990 cells. A ...

SW1990‐luc xenografts = test: SW1990-luc xenografts in BALB/c nude mice; format: in vivo, Human (xenograft in BALB/c nude mice); settings: n = 5, p < 0.01, two-way ANOVA, dose not given, Figure 5I-K
Experimental: BALB/c nude mice (4 weeks old) were purchased from the Animal Core Facility of Nanjing Medical University. Every 1 × 10^6 SW1990‐luc cells (SW1990 cells labeled with luciferase) were suspended in 100 µL of PBS and Matrigel (Corning) mixture, then subcutaneously injected into the right forelimb of nude mice. The length and width of tumor were measured every 2 or 3 days. Tumor volume was calculated using the formula: Volume = 0.5 × length × width^2. Luciferase signals in nude mice were measured at the first and fourth week after injection. The mice were sacrificed at 30 days for in vivo proliferation assay. Mice were anesthetized with isoflurane gas and sacrificed by cervical dislocation. Tumor tissues of these mice were collected for further analyses. Luciferase signals from D‐luciferin (Cat No. MB1834; MeilunBio, Dalian, China) were measured using IVIS Spectrum (PerkinElmer, USA) at indicated concentrations. The luciferase signal activity was quantitated using the software provided by the manufacturer.

H3K4me1 [5] = test: Western blot of H3K4me1 in PANC-1 cells; format: cell-based, Human; settings: 0, 1, 10 or 100 μM GSK-LSD1, Figure S4D
SW1990 cells [6] = test: Transwell migration and invasion, SW1990; format: cell-based, Human; settings: 24 h, vs Vehicle, p < 0.01, Figure 5H
Experimental: as §1

PDX tumors = test: Patient-derived xenograft (PDX) model of PDAC; format: in vivo, Human (xenograft in immunodeficient nude mice)
Description: A PDX model was established by implanting tumor fragments into immunodeficient nude mice. Tumor fragments were derived from a PDAC patient with stage II ductal adenocarcinoma, who underwent surgery at the Second Affiliated Hospital of Nanjing Medical University. Informed consent was obtained from each patient, and all procedures involving human samples were approved by the Ethics Committee of the Second Affiliated Hospital of Nanjing Medical University.

SW1990 cells [7] = test: Colony-formation and CCK-8 proliferation, SW1990; format: cell-based, Human; settings: vs Vehicle, p < 0.01, Figure 5F,G
Experimental: as §1

SW1990 cells [8] = test: KLLN rescue experiments (CCK-8, colony-formation, Transwell), SW1990; format: cell-based, Human; settings: p < 0.01, Figure 5Q-S
Experimental: as §1

PANC‐1 cells [9] = test: KLLN rescue experiments (CCK-8, colony-formation, Transwell), PANC-1; format: cell-based, Human; settings: p < 0.01, Figure S4H-J
Experimental: as §1

KLLN [10] = test: Western blot of KLLN in SW1990 cells; format: cell-based, Human
Experimental: as §2

In the case of c1ccc([C@@H]2C[C@H]2NC2CCNCC2)cc1 [GSK‐LSD1], the “H3K4me1 in metastatic foci” value (H3K4me1 [1]) is reported as “upregulation”, the “KLLN in metastatic foci” value (KLLN [2]) is reported as “upregulation” and the proliferation (PANC‐1 cells [3]) is reported as “significantly inhibited”. The “KLLN level, concentration dependence” value (KLLN [4]) was “increased the levels of H3K4me1 and KLLN in a concentration‐dependent manner”, the “H3K4me1 level via blocking of KDM1A/LSD1” value (KDM1A/LSD1) was “can increase H3K4me1 level” and the “inhibition of KDM1A/LSD1, in words” value (KDM1A/LSD1) was “selective inhibitor of KDM1A/LSD1”. The “xenograft size compared to control mice” value (SW1990‐luc xenografts) was “significantly smaller sizes of SW1990‐luc xenografts”, the “H3K4me1 level, concentration dependence” value (H3K4me1 [5]) was “increased the levels of H3K4me1 and KLLN in a concentration‐dependent manner” and the invasion (SW1990 cells [6]; Transwell with Matrigel) was “significantly inhibited”. For the same molecule, the migration (SW1990 cells [6]; Transwell without Matrigel) was “significantly inhibited”, the “effect compared with Gemcitabine” value (PDX tumors; PDX mice, n = 5, doses not given, Figure 5N,O) was “more favorable effects than Gemcitabine” and the “PDX tumor size compared with control mice” value (PDX tumors; n = 5, dose not given, Figure 5N) was “remarkably smaller tumors”. For the same molecule, the proliferation (SW1990 cells [7]) was “significantly inhibited”, the “tumor-suppressive phenotype of GSK-LSD1 on knockdown of KLLN” value (SW1990 cells [8]) was “markedly attenuated” and the “tumor-suppressive phenotype of GSK-LSD1 on knockdown of KLLN” value (PANC‐1 cells [9]) was “markedly attenuated”. The “KLLN level, concentration dependence” value (KLLN [10]; 0, 1, 10, or 100 µM GSK-LSD1, Figure 5E) was “increased the levels of H3K4me1 and KLLN in a concentration‐dependent manner” and the KLLN protein level (KLLN [10]; Western blot, concentration not given, Figure 4F) was “significant upregulation”.
